# System: RSV A2
# Experiment: RSV antiviral cytopathic effect (CPE) assay, MTT readout
# Assay type: cell-based
# Conditions: human respiratory syncytial virus, HEp-2, 120 h; RSV A2 in HEp2 cells, CPE assay, MTT, approx. 5 days; read-out: Activity Range (RSV A2 antiviral EC50), compounds of Table 2
# Protocol: Method Q: RSV Antiviral Assay Protocol
# Compounds of the invention were tested for their antiviral activity against respiratory syncytial virus. Cytopathic effect (CPE) assays were performed essentially as described in the literature (see for example Watanabe et al, 1. Virological Methods, 1994, 48, 257). Serial dilutions of the test compounds were made in assay medium. HEp2 cells (1.0×10^4 cells/well) were infected with RSV at a low multiplicity of infection (e.g. RSV A2 at an moi of 0.01) and 100 μL added to cultures assessing antiviral activity and cells without virus added to those assessing compound cytotoxicity. Assays were incubated for approximately 5 days at 37° C. in a 5% CO2 atmosphere. The extent of CPE was determined via metabolism of the vital dye 3-(4,5-dimethylthiaxol-2-yl)-2,5-diphenyltetrazolium bromide (MTT). A 3 mg/ml stock of MTT was made in assay medium and 100 μL added to each well, taking the final MTT concentration to […]. After 2 hours incubation at 37° C., the media-MTT solution was removed and 200 μL of isopropanol was added to dissolve the vital dye crystals. Plates were shaken and the absorbance read at 540 nm. The compound concentrations that inhibited CPE by 50% (EC50) and developed cytotoxicity (CC50) were calculated using an Excel curve fitting program.
row,SMILES,EC50 [µg/mL]
1,COc1ccc(CC(=O)N2CCN3C(=O)c4ccccc4C23c2ccc(Br)cc2)cc1 (stereo not shown) [Compound 235],0.1 to 0.25
2,O=C(c1ccno1)N1CCN2C(=O)c3ccccc3C12c1ccc(Cl)cc1 (stereo not shown) [Compound 183],0.1 to 0.25

# Same assay, conditions: human respiratory syncytial virus, HEp-2, 120 h; RSV A2 in HEp2 cells, CPE assay, MTT, approx. 5 days; read-out: Activity Range (RSV A2 antiviral EC50), compounds of Table 3
row,SMILES,EC50 [µg/mL]
1,O=C(c1cncnc1)N1CCN2C(=O)c3ccncc3C12c1ccc(Cl)cc1 (stereo not shown) [Compound 481],0.25 to 1
2,Cc1nnsc1C(=O)N1CCN2C(=O)c3ccncc3C21c1ccc(Cl)cc1 (stereo not shown) [Compound 386],0.1 to 0.25
3,O=C(c1ccc(C#Cc2ccccc2)o1)N1CCN2C(=O)c3ccncc3C12c1ccc(Cl)cc1 (stereo not shown) [Compound 416],0.25 to 1
4,Cc1cc(C(=O)N2CCN3C(=O)c4ccncc4C32c2ccc(Cl)cc2)n(C)n1 (stereo not shown) [Compound 420],0.25 to 1
5,CCSc1ncccc1C(=O)N1CCN2C(=O)c3ccncc3C21c1ccc(Cl)cc1 (stereo not shown) [Compound 397],0.1 to 0.25
6,Cc1cc(C(=O)N2CCN3C(=O)c4ccncc4C32c2ccc(Cl)cc2)c(C)o1 (stereo not shown) [Compound 412],< 0.1
7,O=C1c2ccncc2C2(c3ccc(Cl)cc3)N1CCN2C(=O)c1ccnn1-c1ccccc1 (stereo not shown) [Compound 423],0.25 to 1
8,Cc1cc(C(=O)N2CCN3C(=O)c4ccncc4C23c2ccc(Cl)cc2)oc1C (stereo not shown) [Compound 415],0.25 to 1
9,O=C(c1csc(-c2ccc[n+]([O-])c2)n1)N1CCN2C(=O)c3cc[n+]([O-])cc3C12c1ccc(Cl)cc1 (stereo not shown) [Compound 482],< 0.1
10,Cc1nc(C(=O)N2CCN3C(=O)c4ccncc4C23c2ccc(Cl)cc2)cs1 (stereo not shown) [Compound 444],0.1 to 0.25
11,Cc1csc(C(=O)N2CCN3C(=O)c4ccncc4C32c2ccc(Cl)cc2)c1Cl (stereo not shown) [Compound 450],0.1 to 0.25
12,O=C(c1ccc(F)nc1)N1CCN2C(=O)c3cccnc3C12c1ccc(Cl)cc1 (stereo not shown) [Compound 369],0.1 to 0.25
13,O=C(c1csnn1)N1CCN2C(=O)c3ccncc3C12c1ccc(Cl)cc1 (stereo not shown) [Compound 456],< 0.1
14,O=C(c1csc([N+](=O)[O-])c1)N1CCN2C(=O)c3ccncc3C12c1ccc(Cl)cc1 (stereo not shown) [Compound 434],0.25 to 1
15,O=C(c1ccoc1)N1CCN2C(=O)c3ccncc3C12c1ccc(Cl)cc1 (stereo not shown) [Compound 414],< 0.1
16,O=C(c1csc(-c2ccccc2)n1)N1CCN2C(=O)c3ccncc3C12c1ccc(Cl)cc1 (stereo not shown) [Compound 391],< 0.1
17,COc1ccc(-c2cc(C(=O)N3CCN4C(=O)c5ccncc5C34c3ccc(Cl)cc3)on2)cc1 (stereo not shown) [Compound 465],0.25 to 1
18,COc1ccc(-c2ocnc2C(=O)N2CCN3C(=O)c4ccncc4C32c2ccc(Cl)cc2)cc1 (stereo not shown) [Compound 462],< 0.1

row,SMILES,EC50 [µg/mL]
1,O=C(c1ccco1)N1CCN2C(=O)c3ccncc3C12c1ccc(Cl)cc1 (stereo not shown) [Compound 413],< 0.1
2,Cc1cc(C(=O)N2CCN3C(=O)c4ccncc4C23c2ccc(Cl)cc2)nn1C (stereo not shown) [Compound 421],0.25 to 1
3,O=C(c1csc(-c2cccs2)n1)N1CCN2C(=O)c3ccncc3C12c1ccc(Cl)cc1 (stereo not shown) [Compound 377],< 0.1
4,Cc1noc(C)c1C(=O)N1CCN2C(=O)c3ccncc3C21c1ccc(Cl)cc1 (stereo not shown) [Compound 392],0.1 to 0.25
5,O=C(c1ccc(F)nc1)N1CCN2C(=O)c3ccncc3C12c1ccc(Br)cc1 (stereo not shown) [Compound 366],< 0.1
6,O=C(c1ccc(Cl)nc1)N1CCN2C(=O)c3ccncc3C12c1ccc(Cl)cc1 (stereo not shown) [Compound 364],0.25 to 1
7,O=C1c2ccncc2C2(c3ccc(Cl)cc3)N1CCN2C(=O)c1cccnc1Oc1ccccc1 (stereo not shown) [Compound 404],0.25 to 1
8,O=C1c2ccncc2C2(c3ccc(Cl)cc3)N1CCN2C(=O)c1ncoc1-c1ccccc1 (stereo not shown) [Compound 463],< 0.1
9,O=C1c2ccncc2C2(c3ccc(Cl)cc3)N1CCN2C(=O)c1sccc1Br (stereo not shown) [Compound 445],< 0.1
10,CCOc1ccsc1C(=O)N1CCN2C(=O)c3ccncc3C21c1ccc(Cl)cc1 (stereo not shown) [Compound 449],< 0.1
11,O=C(c1cncc(C#Cc2ccccc2)c1)N1CCN2C(=O)c3ccncc3C12c1ccc(Cl)cc1 (stereo not shown) [Compound 406],0.25 to 1
12,O=C(c1cscn1)N1CCN2C(=O)c3ccncc3C12c1ccc(Cl)cc1 (stereo not shown) [Compound 483],< 0.1
13,O=C(c1cccs1)N1CCN2C(=O)c3ccncc3C12c1ccc(Cl)cc1 (stereo not shown) [Compound 431],< 0.1
14,O=C(c1ccno1)N1CCN2C(=O)c3ccncc3C12c1ccc(Cl)cc1 (stereo not shown) [Compound 448],0.1 to 0.25
15,O=C(c1ccc(F)cc1)N1CCN2C(=O)c3ccncc3C12c1ccccc1Cl (stereo not shown) [Compound 344],0.25 to 1
16,O=C1c2ccncc2C2(c3ccc(Cl)cc3)N1CCN2C(=O)c1nsc(Cl)c1Cl (stereo not shown) [Compound 461],< 0.1
17,Cc1nc(-c2ccccc2)sc1C(=O)N1CCN2C(=O)c3ccncc3C21c1ccc(Cl)cc1 (stereo not shown) [Compound 468],0.25 to 1

# Reference: patent publication US8598193B2, “Polycyclic agents for the treatment of respiratory syncytial virus infections” (Biota Scientific Management Pty Ltd., priority 2003, dated 2013)
